SMILES | melting point [°C]
O=C(CNc1ccc2[nH]c(=O)oc2c1)N1CCC(Oc2ccc(Cl)cc2)CC1 | 180 to 183
CCOC(=O)C1=C(COCc2cccnc2)NC(COCc2cccnc2)=C(C(=O)OCC)C1c1ccccc1[N+](=O)[O-] | 142 to 145
Cc1ccc(C)c([PH](=O)O)c1 | 73 to 80
CCn1c(=O)c2[nH]c(/C=C/c3cc(OC)c(OC)cc3[N+](=O)[O-])nc2n(CC)c1=O | 284
CN1C[C@H](O)C[C@H]1C(N)=O | 138 to 140
COc1ccc(O)cc1[N+](=O)[O-] | 78 to 80
COc1cc(N)c(Cl)cc1C(=O)NCC1CCN(CCCCNC(=O)c2cccc3ccccc23)CC1 | 138 to 141
COP(=O)(CCC(C)(C)c1ccc(O)cc1O)OC | 142 to 143
CCOC(=O)[C@@H](O)[C@@H]1OC(=O)c2ccc(OC)cc21 | 121 to 122
O=C1OC2CCSC2Cn2cccc21 (configuration not stated) | 167 to 168
O=C1Nc2cc([N+](=O)[O-])ccc2OC1CCO (configuration not stated) | 174 to 175
COc1ccc(Oc2ccc(C(=O)N(C3CCCCC3)C3CCCC3)cc2)cc1OC | 154
Cc1c(Cc2c[nH]cn2)ccc(O)c1C(N)=O | 263
COc1ccc(-c2n[nH]c3ccc([N+](=O)[O-])cc23)cc1 | 153
c1ccc(C2=Nc3ccccc3OC2)cc1 | 108 to 111
CC(C)CC(NC(=O)C(Cc1c[nH]cn1)NC(=O)C(CC(=O)N1CCCCC1)Cc1cccc2ccccc12)C(O)C(=O)OC(C)C (mixture of isomers) | 91 to 97
CC1(C)CC(=C(c2ccc(O)cc2)c2ccc(-c3ccccc3CO)cc2)CC(C)(C)C1 | 171 to 172
CC1C=CCCC1C1OC(=O)NC1=O (configuration not stated) | 97 to 103
CCO/C(=N/O)C1Cc2cc(C(=O)CC)c(O)c(Cl)c2O1 (configuration not stated) | 146 to 147
CC1(c2ccccc2)OC(=O)C(=O)CC1=O (configuration not stated) | 142 to 144
CC(C)c1nc2c(c3c1[nH]c1ccccc13)C(=O)CC(C)(C)C2 | 176 to 178
CC(C)CC=CC(C)C1CCC2C3=CC=C4CC(O)CCC4(C)C3CCC21C (configuration not stated) | 120 to 122
CCN(CC)C(=O)CCS(=O)(=O)c1cc(-c2ccccc2)nc2ccccc12 | 100
Cc1nc(C)c(Cl)c(NCc2nccc(OCCOCCSCCn3c([N+](=O)[O-])cnc3C)c2C)n1 | 102 to 105
CCOC(=O)C(NC(=O)CNC(=O)CCl)C(=O)OCC | 104 to 105

SMILES | melting point [°C]
CCCCc1nn(CC#N)c(=O)n1Cc1ccc(-c2ccccc2-c2nnn[nH]2)cc1 | 86 to 88
N#Cc1cccc(-c2ccccn2)n1 | 136 to 137
Cc1oc(-c2ccccc2)nc1COc1ccc(CCCCc2nnn[nH]2)cc1 | 116 to 117
Cc1nc(-c2ccccc2)[nH]c1-c1cnc(-c2ccccc2)nc1 | 138
Cc1ccc(S(=O)(=O)N(C)c2ccc(Cl)cc2CO)cc1 | 130 to 132
COC(=O)c1ccc(C#CC(=O)c2ccc3c(c2)CCCC3(C)C)cc1O | 89 to 90
COc1nc2ccccc2cc1N(C(=O)N1CCN(c2cc(C)cc(C)c2)CC1)C(C)C | 114 to 115
O=[N+]([O-])c1ccc(Cl)cc1Nc1ccccc1Cl | 97
COc1cc(Nc2nccc(-c3sc(NCCc4ccccc4)nc3C)n2)cc(OC)c1OC | 184 to 186
O=C1N(CC2CCCO2)c2ccccc2C12COc1cc3c(cc12)OCCO3 (configuration not stated) | 174 to 176
CCCc1nc2c(C)cc(C)nc2n1C1CCc2cc(-c3ccccc3-c3nnn[nH]3)ccc21 (configuration not stated) | 173
CCCCCCCCc1cc2cc(O)ccc2c(Oc2ccc(/C=C/C(=O)O)cc2)c1-c1ccccc1 | 163 to 164
CN(C)CCc1[nH]c2ccccc2c1CC(N)=O | 114 to 117
C#CCN(C)Cc1nc2ccc(OC(F)(F)F)cc2s1 | 117 to 120
CCSc1cc(C)nc(SCC)c1NC(=O)CCCCCSc1nc2ccccc2s1 | 81 to 83
BrCc1nsc2nc3ccccc3n12 | 242 to 244
O=C1c2ccccc2-n2cnc(I)c2[C@@H]2CCCN12 | 222 to 223
O=C1c2ccccc2-c2c1c1ccccc1c(=O)n2CCCCCCCCCCCCn1c2c(c3ccccc3c1=O)C(=O)c1ccccc1-2 | 226 to 228
CC(C)CCCC(C)C1CCC2C3CC=C4CC(Oc5ccc(N)cc5N)CCC4(C)C3CCC12C (configuration not stated) | 159 to 163
O=C(c1ccccc1)c1c(O)c2c(C(=O)O)cccc2[nH]c1=O | > 300
Cc1cc(S(=O)(=O)Nc2cc(F)c(Oc3cnc4ccccc4c3)c(Cl)c2)c(Cl)cc1Cl | 187
O=C(NCC12CC3CC(CC(C3)C1)C2)c1c(Cl)ccc2nc(N3CCC(C(=O)O)(c4ccccc4)CC3)ccc12 | 235 to 237
CNC(C(=O)NC(N)=O)C(=S)c1cccc2c(C(F)(F)F)c(OC)ccc12 (configuration not stated) | 203 to 204
CC(C)(C)OC(=O)NCc1cc(C(C)(C)C)cc(I)c1O | 196 to 197
CC1(C)OC(=O)C(C=Nc2cncc(Br)c2)C(=O)O1 | 200 to 202

Next, values leading:

melting point [°C] | SMILES
224 to 225 | COc1ccc(C(=O)Nc2c(Cl)cncc2Cl)c2cc(C(=O)N3CCN(C)CC3)oc12
170 to 172 | CCc1nn2c(-c3cccnc3)ccnc2c1C#N
94 | COCCNC(=O)c1nc(C(=O)OC)c2cc(Cc3ccc(F)cc3)cnc2c1OCc1ccccc1
44 to 45 | COc1ccc2cc(C(C)C(=O)OCC(=O)OCCO[N+](=O)[O-])ccc2c1 (configuration not stated)
165 to 167 | CC(C)n1nc(-c2cc(C(=O)NCCO)cnc2-c2ccccc2)ccc1=O
234 to 236 | CCn1c(=O)oc2cc(N3C[C@H](C(N)=O)OC3=O)ccc21
219 to 221 | CN(C)c1ccc(-c2cc(-c3ccnc4c(C(=O)c5cccs5)cnn34)ccc2F)cc1
91 to 92 | COc1cc2c(cc1O)CCN(C(=O)NCCN(C(C)C)C(C)C)C2c1ccccc1 (configuration not stated)
167 to 168 | O=C(Nc1ccc(F)cc1)c1ccccc1
178 to 180 | Cc1ccc(F)cc1C(=O)Nc1ccc(C(=O)N2CCCCc3sccc32)cn1
98 to 99 | O=C(CCBr)N1CC(c2ccccc2)c2ccccc21 (configuration not stated)
223 to 224 | Cn1ncc(/C=C/C(=O)Nc2ccc(Cc3nnco3)cc2)c1-c1ccc(F)cc1
126 to 128 | CC(O)c1nccc(N2CCc3cc(-c4ccsc4)ccc3C2)n1 (configuration not stated)
108 to 109 | O=C(O)C1CC(=O)N(c2cc(C(F)(F)F)cc(C(F)(F)F)c2)C1 (configuration not stated)
163 | CC(Nc1ccc(F)c(F)c1)C(=O)O (configuration not stated)
132 to 134 | Cc1ccc(NS(=O)(=O)Cc2ccccc2)c(OCc2ccccc2)c1CC(=O)O
160 to 165 | c1cn(CCc2ccc3c(c2)Cc2c(-c4ccsc4)n[nH]c2-3)cn1
101 to 103 | O=C(O)CSc1nccn1Cc1cc(F)cc(F)c1
92.5 | O=C1N(c2cc(Cl)cc(Cl)c2)C(=O)C2(Cc3ccc(Br)cc3)CNCCN12 (configuration not stated)
189 to 190 | COC(=O)c1ccc(-c2nc(-c3ccc(Cl)s3)co2)cc1
93 to 95 | c1ccc2c(c1)CCC(n1ccnc1)C2 (configuration not stated)
96 | Cn1c(=O)n(COc2ccc(Cl)cc2)c(=O)c2c1ncn2Cc1ccccc1
> 260 | CCNCc1ccc2nc(C)[nH]c(=O)c2c1
114 to 116 | Cc1cccc(N2CCN(CCCCc3ccc(C4CCC(=O)N4)cc3)CC2)c1 (configuration not stated)
78 to 80 | CCCCCCCCn1c(=O)c2c(N3CCN(C)CC3)cc(Cl)cc2n(Cc2ccccc2)c1=O
102 | O=C(O)C1Oc2cc3onc(-c4ccccc4)c3c(Cl)c2O1 (configuration not stated)

melting point [°C] | SMILES
94 to 96 | COc1ccc(F)cc1C(C)(C)CC(O)(Cc1ccccn1)C(F)(F)F (configuration not stated)
182 to 184 | CCCSc1ncc(CC(NC(C)=O)C(=O)O)n1Cc1ccccc1Cl (configuration not stated)
162 to 163 | CCCOc1c2cc(F)c(F)cc2nc2c1c(C)nn2-c1ccccn1
290 to 292 | CCc1c(C)[nH]c2cc(OCCOc3ccccc3)c(Cl)cc2c1=O
179 to 182 | COc1ccc(CCc2cc3cc(C#N)ccc3o2)c(C(=O)O)c1
111 | Cc1ccc(NS(=O)(=O)c2ccc(Br)cc2)c(F)c1
134 to 136 | N#Cc1cc(Cl)c(NC(=O)C(F)(F)F)c(Cl)c1
81 to 82 | Cc1coc2c1C(=O)CC(c1ccc(F)cc1)C2 (configuration not stated)
158 to 160 | Fc1ccc(-c2nc3ccc(OC(F)(F)F)cc3[nH]2)cc1
282 to 285 | COc1cc2ncc(C#N)c(Nc3ccc(F)cc3)c2cc1OC
156 to 158 | CC(C)(C)CCNc1cccc(-c2ccnc3c(C(=O)c4cccs4)cnn23)c1
> 300 | CCOC(=O)c1cccc(-c2cc3c(Nc4cccc(Cl)c4)ncnc3[nH]2)c1
158 to 159 | O=C(O)c1ccccc1COc1cccc(Br)c1
122 to 124 | CCOc1ncc(Br)cc1C(=O)O
149 to 152 | Cn1c(C(F)(F)F)cc(=O)n(-c2ccc3snc(C(=O)O)c3c2)c1=O
86 to 89 | COC(=O)C(OCc1csc(-c2ccc(F)cc2)n1)C(=O)c1ccccc1 (configuration not stated)
85 to 86 | CCOC(=O)C(=CNC1CC1)C(=O)c1c(F)c(F)c(F)c(F)c1F
172 to 174 | CCOC(=O)c1ccc(NC(=O)c2ccc(F)cc2)cc1
131 to 133 | CCN(CC)CCOc1ccc2ncn(/C=C/C(=O)OC)c(=O)c2c1
162 to 170 | O=C(O)c1cc(Oc2c(Br)cc(Br)cc2Br)ccc1[N+](=O)[O-]
138 | CC(C)C(=O)N=c1ccn(-c2ccccc2)nc1
155 | C[C@@H](Nc1ncnc2cc(OCC3CC3)c([N+](=O)[O-])cc12)c1ccccc1
157 to 160 | CCCCC(F)c1nc[nH]c(=O)c1Cl (configuration not stated)
79 to 81 | COc1ccc(Cl)cc1CCCC(=O)O
125 | CCc1nn(CCO)c(CC)c1Oc1cc(C#N)cc(C#N)c1
150 to 152 | COC(=O)NNC(=S)Cc1ccc(F)cc1

Reference: a melting point compilation (Tetko et al.; mined from patent text by program, amines drawn as free bases though some values may be those of a salt)
